Measurements reported in patent US20250084097A1, “MACROCYCLIC AMIDE COMPOUNDS AND APPLICATION THEREOF” (Medshine Discovery Inc., priority 2021, published 2025).

Tests used:
[1] = tested on: Ba/F3-FL-EGFR(L858R/T790M/C797S) phosphorylation; experiment: Inhibition of EGFR phosphorylation in cells, Western Blot; type: cell-based; conditions: p-EGFR, 4 h incubation, read-out: Cell half-maximal inhibition concentration IC50 Ba/F3-FL-EGFR(L858R/T790M/C797S)
Text: (§1) Autophosphorylation of EGFR can activate its intracellular kinase pathway. In this assay, EGFR phosphorylation was quantified in order to detect the inhibitory effect of compounds on Ba/F3-FL-EGFR(L858R/T790M/C797S) and Ba/F3-FL-EGFR (del19-E746-A750/T790M/C797S) phosphorylation.
(§2) The cells in the logarithmic growth phase were taken and counted with a cell counter. The cell viability rate was required to be >90%. Cells were inoculated into a sterile 6-well plate with 2×10^6 cells per well, replenished with 1640 complete medium to 1998 μL, and the 6-well plate was incubated in a constant temperature incubator at 37° C. and 5% CO2.
(§3) The 6-well plate was taken out, and the cells were normal under microscope. In an ultra-clean bench, 2 μL of each of the prepared gradient diluted 1000× stock solution was added to the 6-well plate inoculated with cells, and the 6-well plate was gently shaken to distribute the compounds evenly.
(§4) The 6-well plate was incubated statically in a constant temperature incubator at 37° C., 5% CO2 for 4 h;
(§5) After the cells were cultured statically for 4 hours, the culture medium was collected, and centrifuged at 8000 rpm for 3 minutes. The cells were collected in a 1.5 mL EP tube. The supernatant was discarded, and the total protein was extracted;
(§6) Cells from each group were collected into 1.5 ml EP tubes and a certain volume of Lysis Buffer (RIPA:protease/phosphatase inhibitor=100:1) was added (˜66 μL per 2×10^6 cells, depending on the cell amount). After adding Lysis Buffer, the EP tubes were placed on ice quickly and vortexed using a vortexer to fully lyse the cells. Be careful not to vortex for too long, and quickly place the sample tube on ice to lysis, shaking every 10 min for three times. At the end of the lysis time, the EP tubes were centrifuged at 12000 rpm for 10 min in a pre-cooled centrifuge at 4° C. After centrifugation, the supernatant was transferred to new 1.5 ml EP tubes which were labeled.
(§7) Using the BCA Protein Concentration Assay Kit, protein quantification of the sample lysis supernatant was performed according to the kit instructions. After the protein concentration was determined, the lysis supernatant with the lowest concentration was used as the reference, and the rest of the lysis supernatants were diluted to that concentration using Lysis Buffer in a volume calculated according to the BCA standard curve. To the diluted lysis supernatant, the corresponding volume of 5× loading Buffer was added. The diluted solution was heated in a metal bath at 95° C. for 10 min, then placed on ice to be cooled, and stored in a refrigerator at −20° C.
(§8) The glass plates used for making glue were cleaned, and two glass plates were aligned the bottoms, put into the bracket, and fixed with clips. The separation gel according to the 10% separation gel formula was prepared, mixed well and then added to the glass plate. The addition was stopped until the separation gel reached about ¾ of the glass plate and the glue was pressed with 75% ethanol. After 90 minutes, the separation gel was solidified. The 75% ethanol was poured out. Filter paper was used to absorb the remaining ethanol solution on the glass plate. A 5% stacking gel was prepared, mixed evenly and added to the glass plate. Then a spiking comb was inserted. After 60 minutes, the glue was made.
(§9) The gel plate was fixed in an electrophoresis tank, and the inner tank was filled with 1× electrophoresis solution, while in the outer tank the electrophoresis solution was over the metal wire. The spiking comb was removed, the protein samples of Ba/F3-FL-EGFR (L858R/T790M/C797S) and Ba/F3-FL-EGFR (del19-E746-A750/T790M/C797S) cells were sampled 25 μg, and Protein Ladder was then added. Turning on the power supply, electrophoresis with a constant voltage of 70 V lasted for 30 min, electrophoresis was continued at constant voltage 86 V for 1 h 20 min until the bromophenol blue indicator band reached the bottom and electrophoresis was stopped. […]

[2] = tested on: Ba/F3-FL-EGFR (del19-E746-A750/T790M/C797S) phosphorylation; experiment: as above; type: cell-based; conditions: p-EGFR, 4 h incubation, read-out: Cell half-maximal inhibition concentration IC50 Ba/F3-FL-EGFR (del19-E746-A750/T790M/C797S)
Text: as §1, §2, §3, §4, §5, §6, §7, §8, §9

Structure (SMILES) | IC50 [1] [nM] | IC50 [2] [nM]
Cc1cc2cc(n1)-c1cnn(C)c1OC[C@H]1CC[C@H](C1)CN1/C(=N/C2=O)Nc2ccc(N=S(C)(C)=O)cc21 (single isomer, unassigned) [WX-027A] | 2.1 | 1.9
Cc1cc2cc(n1)-c1cnn(C)c1OCCC[C@@H](C)CN1/C(=N/C2=O)Nc2ccc(N=S(C)(C)=O)cc21 [WX-006] | 3.4 | 0.6
Cc1cc2cc(n1)-c1cnn(C)c1OCCC[C@@H](C)CN1/C(=N/C2=O)Nc2ccc(N=S3(=O)CCCC3)cc21 [WX-010 (trifluoroacetate)] | 2.3 | 0.8
Cc1cc2cc(n1)-c1cnn(C)c1OCCC[C@@H](C)CN1/C(=N/C2=O)Nc2ccc(N=S3(=O)CCOCC3)cc21 [WX-013] | 2.9 | 1.3
